Residues, ends and D or L forms follow the SMILES beside them. *: point of attachment. Boc = CC(C)(C)OC(=O)*; OBn = c1ccc(CO*)cc1; βAla = NCCC(=O)O
Work on `CCOC(=O)c1cnc2c(cnn2-c2ccccc2)c1N(Cc1cccnc1)S(=O)(=O)c1ccc(OC)cc1` yielded a melting point of 89 to 91 °C. `C=C(CS(C)(=O)=O)C(=O)O` showed a melting point of 147 to 149 °C. For `OC(c1ccc(F)cc1)c1ccc2noc(-c3cccc(Cl)c3)c2c1` (stereo unspecified), the melting point was 171 °C. `CCOC(=O)CCCCCOc1ccc(-c2ccccc2)c(-c2ccccc2)n1` gave a melting point of 85 to 87 °C. Molecule `CS(=O)(=O)c1cc(OCC(O)CNC2CCC(c3ccc(C(=O)N4CCC(C(O)c5ccccc5)CC4)cc3)CC2)ccc1O` (stereo unspecified) has a melting point of 120 °C. Molecule `NC1=Nc2ccccc2CS1` has a melting point of 132 to 135 °C. In the case of `COC(=O)c1ccccc1S(=O)(=O)Cc1c(O)ccc2c1CCCC2=O`, the melting point is reported as 194 to 196 °C. Molecule `CN1c2ccccc2CC1c1ccccc1NC(=O)C(C)(C)C` (stereo unspecified) has a melting point of 133 to 135 °C. In the case of `CCOC(=O)c1c(CCc2ccc(C(F)(F)F)cc2)nc2c(c1-c1ccc(C(=O)N[C@@H](C)c3ccncc3)cc1)C(=O)N1CCC[C@@H]21`, the melting point is reported as 158 to 160 °C. Molecule `Cc1cc(Cn2cncn2)cc2c1Cc1c(-c3ccsc3)n[nH]c1-2` has a melting point of 255 to 257 °C. `COc1ccc2c(c1)Nc1cccc(SC)c1S2` showed a melting point of 152 to 154 °C. `Cc1cc(F)ccc1-c1cc(N2CCSCC2)ncc1N(C)C(=O)C(C)(C)c1cc(C(F)(F)F)cc(C(F)(F)F)c1` showed a melting point of 168 to 170 °C. `CC(=O)Nc1cc([N+](=O)[O-])ccc1OCC(C)O` (stereo unspecified) gave a melting point of 123 °C. Molecule `CSc1ccc(-c2nn(CC3CC3)c(=O)cc2-c2ccc(Cl)cc2)cc1` has a melting point of 142 to 143 °C. With `CCOc1cccc(OCC)c1NC(=O)Cc1c(-c2ccccc2OC)c2cc(Cl)ccc2n1C` the melting point was 180 to 183 °C. With `O=c1c2ccccc2cc(-c2ccc(F)cc2)n1CCF` the melting point was 119 to 121 °C. For `C(=Cc1cc2cc3ccccc3cc2s1)c1ccccc1`, the melting point was 305 to 307 °C. For `NNc1ccc(C(=O)O)cn1`, the melting point was 292 to 293 °C. Work on `Clc1nc2ncsc2nc1Cl` yielded a melting point of 124 to 125 °C. In the case of `CC(C)c1[nH]n(-c2c(Cl)cc(Cl)cc2Cl)c2nc(Cc3ccc(N=C=O)cc3)nc(=O)c1-2`, the melting point is reported as 233 to 235 °C. In the case of `COc1cc(OC)cc(N2CCN(C(=O)Nc3cc(C(C)OC(=O)CCC(=O)O)c(C)nc3OC)CC2)c1` (stereo unspecified), the melting point is reported as 158 to 160 °C. Molecule `COc1ccc(CC(CSC(C)=O)C(=O)Nc2cccc(C(=O)O)c2)cc1` (stereo unspecified) has a melting point of 124 to 126 °C. With `CC(C)(C)c1nn(-c2ccc(N)cc2Cl)c(=O)o1` the melting point was 158 to 159 °C. Molecule `CC(=O)OC1CCc2c(C#N)cccc21` (stereo unspecified) has a melting point of 65 °C. For `O=S1NC(Cc2ccc3c(c2)OCO3)=NO1` (stereo unspecified), the melting point was 132 to 133 °C. Molecule `N#CCCCSc1nccc(N)n1` has a melting point of 99 to 100 °C. `CCCCCCCCCCCCCCCCCC[PH](=O)C(OCC)OCC` (stereo unspecified) showed a melting point of 54 to 58 °C. In the case of `CNCc1ccc(-c2ccc(OC)c(Br)c2)cc1`, the melting point is reported as 65 to 68 °C. For `CC(C)C(NC(=O)OCCN1CCCC1)C(=O)NC(Cc1ccccc1)C(O)C(Cc1ccccc1)NC(=O)C(NC(=O)OCc1ccccc1)C(C)C` (stereo unspecified), the melting point was 143 to 146 °C. `CCOC(=O)C(C)Oc1ncn(-c2ccccc2)n1` (stereo unspecified) showed a melting point of 88 to 89 °C. `CCOC(=O)C1C(=O)CC(=O)CC1c1ccccc1` (stereo unspecified) gave a melting point of 86 to 87 °C. `O=S1(=O)N(CCCN2CC=C(c3ccccc3)CC2)c2cccc3c2N1CCC3` gave a melting point of 120 °C. `CO[C@]1(c2csc(Sc3ccc(/C(C)=N/O)cc3)c2)CCO[C@@H]1C` (racemic) gave a melting point of 89 to 90 °C. `CS(=O)(=O)c1ccc(-c2nc(C(F)(F)F)sc2-c2ccc(F)cc2)cc1` showed a melting point of 150 to 151 °C. Molecule `COc1ccc(C2=NN(c3ccccc3C)C(=O)[C@H]3CC=CC[C@@H]23)cc1OC` (relative stereo) has a melting point of 144 to 145 °C. `COc1c(Cl)c(C=O)c(Cl)c(OC)c1OC` gave a melting point of 76 °C. For `CCOC(=O)CN1CCN(c2cccc(C3=NC(C)(C)Cc4cc(OC)c5c(c43)CC(C)(C)O5)c2)S1(=O)=O`, the melting point was 153 to 155 °C. Work on `c1ccc(Nc2ccc(-c3ccc(N(c4ccccc4)c4ccccc4)cc3)cc2)cc1` yielded a melting point of 168 °C. `CC(=O)Oc1cc(CNC=C2C(=O)NC(=O)c3ccc(Br)cc32)cc(OC(C)=O)c1` showed a melting point of 257 to 258 °C. `C=C(C)C(=O)OCCNC(=O)Nc1nc(=O)cc(C)[nH]1` showed a melting point of 208 °C. Work on `Cc1cc2c(c(C(C)(C)C)c1)OCC(/C=C/C=C/C=C/C(=O)O)=C2` yielded a melting point of 256 to 258 °C. With `Nc1cccc(OC2CCCCO2)c1O` (stereo unspecified) the melting point was 163 to 166 °C. Work on `Cc1cc(OCCc2ccccc2)ccc1[N+](=O)[O-]` yielded a melting point of 70 to 72 °C. Molecule `COC(=O)c1oc2cc(OCc3nc(-c4ccccc4)oc3C)ccc2c1-c1ccccc1` has a melting point of 139 to 140 °C. In the case of `Cc1ccc(-c2ccc(S(C)(=O)=O)cc2)n1-c1ccc(-c2cccs2)cc1`, the melting point is reported as 185 to 186 °C. With `C=C1C(=O)N(C)CCC1c1cccc(OC)c1` (stereo unspecified) the melting point was 67 to 70 °C. With `Clc1ccc(C2=CCN(Cc3coc4ncccc34)CC2)cc1` the melting point was 116 °C. With `NC(=O)c1nn(-c2ccc3c(c2)OCO3)c2c1CCc1ccc(NC(=O)c3cccnc3N)cc1-2` the melting point was 265 to 267 °C. `O=c1nccc2sc3cc(-c4ccccc4)ccc3n12` gave a melting point of 196 to 197 °C. Molecule `CCC(O)(c1ccc(O)cc1O)c1ccccc1OC` (stereo unspecified) has a melting point of 141 to 142 °C. In the case of `Cc1c(CC(=O)O)oc2ccc(Cc3ccccc3)cc12`, the melting point is reported as 149 to 150 °C. `N#CCc1ccc2oc3ncccc3c(=O)c2c1` gave a melting point of 198 to 201 °C. Molecule `CCN(C)c1nc2cc(NC(=O)OC(C)(C)C)ccn2n1` has a melting point of 181 to 183 °C. In the case of `Clc1ncnc(Cl)c1Oc1ccccc1`, the melting point is reported as 89 to 90 °C. In the case of `CN1Cc2c(-c3nc(CN4C(=O)c5ccccc5C4=O)no3)ncn2-c2cccc(Cl)c2C1=O`, the melting point is reported as 237 to 239 °C. Molecule `CN1CNC(=O)NC1=O` has a melting point of 252 to 254 °C. `Cc1cc(C)c(N)nn1` showed a melting point of 123 to 126 °C. Work on `Cc1c(O)ccc2c(=O)c(-c3cccc(C(F)(F)F)c3)coc12` yielded a melting point of 283 to 284 °C. `O=C1NC(=O)C(n2cnc3ccccc32)=C1c1c[nH]c2ccccc12` gave a melting point of 310 to 320 °C. `CC(C)(C)c1cnc(C(=O)Nc2cc(-c3cc(NC4CCCNC4)c(=O)[nH]n3)ccc2F)cn1` (stereo unspecified) showed a melting point of 140 to 141 °C. In the case of `COc1cc(Oc2cccc(C)n2)c(C=CC(=O)c2ccc(S(N)(=O)=O)cc2)cc1-c1cccs1`, the melting point is reported as 164 to 165 °C. `CC1=CC(c2ccc(Cl)cc2)C2=C(CCCC2=O)N1` (stereo unspecified) gave a melting point of 184 to 187 °C. Molecule `O=Cc1c[nH]c2c1ccc1c3cc(Br)ccc3[nH]c12` has a melting point of over 250 °C. Molecule `CCCC(C)(CO)c1cc(Cl)nnc1Cl` (stereo unspecified) has a melting point of 99 to 100 °C. `Cn1nc(C(=O)O)nc1NCCCOc1cccc(CN2CCCCC2)c1` showed a melting point of 130 °C. For `CN1C(C)(C)CC(N(CCCCCCN(C2CC(C)(C)N(C)C(C)(C)C2)P2OCC(C)(C)CO2)P2OCC(C)(C)CO2)CC1(C)C`, the melting point was 103 °C. In the case of `CCOC(=O)c1[nH]c2c(C)ccc(C)c2c1C(=O)OC`, the melting point is reported as 128 to 129 °C. Work on `Cc1cc(-n2ccnc2)c2cccc(OCc3c(Cl)ccc(S(=O)(=O)N4CCC(CO)CC4)c3Cl)c2n1` yielded a melting point of 100 °C. `CCOC(=O)N1CCC(Nc2ccc(C(F)(F)F)c([N+](=O)[O-])c2)CC1` showed a melting point of 127 °C. With `N#CC(C#N)=C1CC=CO1` the melting point was 194 to 196 °C. With `NC12CC3CC(C1)CC(O)(C3)C2` the melting point was 260 to 264 °C. With `OC/C=C/c1ccc(OCc2coc(-c3ccccc3)n2)c(F)c1` the melting point was 134 to 135 °C. In the case of `O=C(CCC(C(=O)O)N1C(=O)c2ccccc2C1=O)OCc1ccccc1` (stereo unspecified), the melting point is reported as 96 to 98 °C. `Cc1oc(-c2ccccc2)nc1COc1ccc(C=CC=O)cc1F` gave a melting point of 133 to 134 °C. For `C=C1CC(COc2ccc3c(C)c(Cl)c(=O)oc3c2)(c2ccccc2)OC1=O` (stereo unspecified), the melting point was 149 to 150 °C. `CCC(c1ccc(Cl)nc1)N(Cc1ccc(C(=O)O)cc1)S(=O)(=O)c1ccc(Cl)cc1` (stereo unspecified) showed a melting point of 111 to 113 °C. Work on `O=[N+]([O-])c1ccc2c(c1)S(=O)(=O)c1cc([N+](=O)[O-])ccc1-2` yielded a melting point of 282 to 287 °C. `FC(F)(F)c1cc(Br)c2nc(C(F)(F)F)[nH]c2c1` showed a melting point of 127 to 130 °C. With `CC(C)(COc1ccc(Cl)cc1)C(=O)COc1ccc(Cl)cc1` the melting point was 76 to 77 °C. With `Clc1ccc(N=Cc2ccccc2)cc1Cl` the melting point was 62 to 65 °C. `O=C1NC(=O)C(c2cccs2)O1` (stereo unspecified) gave a melting point of 138 to 140 °C. Molecule `CC1=C(N)C(C)C2CC(C)(CC3=CCN(c4ccc(-n5ccnc5)cc4)CC3)OC2=C1C` (stereo unspecified) has a melting point of 161 to 163 °C. For `C=CCOc1cc(NCC)c(C(C)=O)cc1C(C)=O`, the melting point was 82 to 83 °C. `CC1c2ccccc2CC(O)Cc2ccccc21` (stereo unspecified) gave a melting point of 142 to 145 °C. With `COc1ccc(Cn2cnc3c(-c4ccco4)nc([N+](=O)[O-])nc32)cc1` the melting point was 182 to 183 °C. Work on `CCOC(=O)c1ccc(C(=O)C2=NS(=O)(=O)c3ccccc3C2=O)cc1` yielded a melting point of 161 °C. Molecule `CC(=O)N(C)C(Cc1ccccc1N)c1sccc1C` (stereo unspecified) has a melting point of 176 to 182 °C. In the case of `CSC1C(=O)Nc2c(Oc3ccccc3)cccc21` (stereo unspecified), the melting point is reported as 149 to 150 °C. With `COC[C@@H](NC(=O)c1nn(-c2ccc(F)cc2F)c2c1C1CCC2C1)c1ccc(F)cc1` (stereo partly specified) the melting point was 109 to 111 °C. Work on `COC(=O)c1c(C(F)F)nc(C(F)(F)F)c(C(=O)Cl)c1CC(C)C` yielded a melting point of 71 to 75 °C. For `CC(C)(C)OC(=O)NCCC(=O)NC(CC(=O)OCc1ccccc1)C(=O)NC(Cc1ccccc1)C(=O)OCc1ccccc1` (stereo unspecified) ({Boc-βAla}-Asp(OBn)-Phe-OBn; configuration not given here), the melting point was 124 to 125 °C. Work on `O=c1c([N+](=O)[O-])c[nH]c2sccc12` yielded a melting point of 288 to 291 °C. `CC(=O)Oc1cc2oc(=O)ccc2cc1C` showed a melting point of 147 °C. Work on `CCC1(O)CC2CC[C@]1(CS(=O)(=O)N1CCC3(C=Cc4ccccc43)CC1)C2(C)C` (stereo partly specified) yielded a melting point of 171 to 173 °C. Work on `O=C1CCC(N2C(=O)c3cccc(NCc4cccnc4)c3C2=O)C(=O)N1` (stereo unspecified) yielded a melting point of 231 to 233 °C. `CCN(CC)c1ccc(N(Cc2ccc(N)c(OC)c2)C(N)=O)c(C)c1` showed a melting point of 110 to 115 °C. `Nc1nc(OCc2ccccc2)c2ncn(CCC3COP(=O)(OCc4ccccc4)OC3)c2n1` (stereo unspecified) gave a melting point of 162 to 166 °C. In the case of `CC(=O)Nc1ccc(C=O)c(F)c1F`, the melting point is reported as 154 °C. With `O=C(c1ccc(Cl)cc1)c1cc2ccccc2cn1` the melting point was 126 to 127 °C. Work on `CCOC(=O)Cn1cc(Cc2cccc([N+](=O)[O-])c2)c2ccccc21` yielded a melting point of 163 to 165 °C. `CCOC(=O)C(C)(C)Oc1ccc2c(c1)C=C(c1nccn1C)CO2` showed a melting point of 210 to 215 °C.
